Experimental data taken from patent publication US10653717B2, “Antibiotic compositions” (priority 2016, dated 2020).
Where two headings read alike, the source gives them in different places.

Experiments:
E. coli DHB4 [1] = test: E. coli growth curves in 15 ml tubes, OD600 nm; format: cell-based, Escherichia coli
Procedure: The large scale growth inhibition of E. coli by Ag^+ with ebselen in combination was also observed in shaking testing 15 ml tubes. […] PI is a membrane-impermeable fluorescent dye that has been widely used to detect permeation of cell membrane and dead cells.
E. coli DHB4 cells were grown in 15 ml tubes until an OD600 nm of 0.4, and treated with 5 μM AgNO3 and serial concentration of ebselen (0, 20, 40, 80 μM) in combination. The survival of untreated E. coli was compared with the antibiotic-treated cells by measuring OD600 nm and counting the colonies. For colony formation assay, cells were harvested at 10 min, 1 h, 2 h, and 4 h by centrifugation at 6,000 rpm for 5 min and thoroughly washed 3 times with PBS. The cells were serially diluted in PBS, and 100 μl cultures were plated on LB plates. The colonies were counted after overnight incubation, and CFU/ml was calculated using the following formula: [(colonies)*(dilution factor)]/(amount plated).

E. coli DHB4 [2] = test: ROS production, H2DCF-DA staining, flow cytometry; format: cell-based, Escherichia coli; settings: 5 μM Ag^+ alone or 20 μM ebselen alone
Procedure: (§1) The E. coli DHB4 cells were grown till the absorbance at OD600 nm of 0.4 in LB medium, and the bacterial cells were treated with different combinations of ebselen and AgNO3 for 10 min. To analyze the amount of ROS production in the bacteria, cells were harvested by centrifugation at 6,000 rpm for 5 min and thoroughly washed 3 times with PBS, and stained with 5 μM H2DCF-DA for 20 min. After the incubation, cells were spin down and re-suspended in PBS, and the ROS production was quantified by flow cytometry (CyAn adp, Beckman coulter).
as §1, with “silver and antibiotics in” for “different”, “combinations” for “combinations of ebselen and AgNO3”, “spun” for “spin”, “(CyAnadp,” for “(CyAn adp,”

E. coli DHB4 trxA^− = test: microbe, parasite or virus in culture; format: cell-based, Escherichia coli; settings: 24 h; for MIC: Escherichia coli, read-out: MIC of ebselen in the presence of silver
Procedure: (§2) Since Trx and GSH/Grx are major thiol-dependent systems, investigated were the effects of Ag^+ with ebselen in combination on Trx or GSH system-deficient E. coli redox mutants.
(§3) Serial dilutions of ebselen and AgNO3 were added to the individual wells. The minimum inhibitory concentration (MIC) was determined after 24 h culture at 37° C.

[3] = tested on: E. coli DHB4 trxA^−gshA^−; test: microbe, parasite or virus in culture; format: cell-based, Escherichia coli; settings: for MIC: read-out: MIC of ebselen in the presence of silver
Procedure: as §2, §3

E. coli DHB4 gor^− = test: microbe, parasite or virus in culture; format: cell-based, Escherichia coli; settings: 24 h; for MIC: Escherichia coli, read-out: MIC of ebselen in the presence of silver
Procedure: as §2, §3

[4] = tested on: E. coli DHB4 gor^−grxA^−B^−C^−; test: microbe, parasite or virus in culture; format: cell-based, Escherichia coli; settings: 24 h; for MIC: Escherichia coli, read-out: MIC of ebselen in the presence of silver
Procedure: as §2, §3

E. coli DHB4 trxC^− = test: microbe, parasite or virus in culture; format: cell-based, Escherichia coli; settings: for MIC: read-out: MIC of ebselen in the presence of silver
Procedure: as §2, §3

[5] = tested on: E. coli DHB4 grxA^−trxA^−; test: microbe, parasite or virus in culture; format: cell-based, Escherichia coli; settings: 24 h; for MIC: Escherichia coli, read-out: MIC of ebselen in the presence of silver
Procedure: as §2, §3

E. coli DHB4 gshA^− = test: microbe, parasite or virus in culture; format: cell-based, Escherichia coli; settings: for MIC: read-out: MIC of ebselen in the presence of silver
Procedure: as §2, §3

[6] = tested on: E. coli DHB4 trxA^−B^−C^−; test: microbe, parasite or virus in culture; format: cell-based, Escherichia coli; settings: 24 h; for MIC: Escherichia coli, read-out: MIC of ebselen in the presence of silver
Procedure: as §2, §3

E. coli DHB4 trxB^− = test: microbe, parasite or virus in culture; format: cell-based, Escherichia coli; settings: 24 h; for MIC: Escherichia coli, read-out: MIC of ebselen in the presence of silver
Procedure: as §2, §3

E. coli DHB4 oxyR^− = test: microbe, parasite or virus in culture; format: cell-based, Escherichia coli; settings: for MIC: read-out: MIC of ebselen in the presence of silver
Procedure: as §2
One major function of GSH and Trx systems is to scavenge ROS to keep cellular redox balance and protect against oxidative stress. The inhibition of the Trx system and depletion of GSH may responsible for the elevation of ROS.
as §3

E. coli Trx = target: T1, E. coli Trx (Escherichia coli, UniProt P0AA25); format: cell-based; settings: Ag^+ or ebselen alone
T1 construct: endogenous in cells; host or cells: E. coli DHB4
T1 sequence (P0AA25 2-109): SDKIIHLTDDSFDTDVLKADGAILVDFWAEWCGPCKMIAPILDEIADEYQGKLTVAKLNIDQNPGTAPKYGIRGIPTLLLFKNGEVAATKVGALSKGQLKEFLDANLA

[7] = 40 μM ebselen or 5 μM Ag^+ alone

`O=c1c2ccccc2[se]n1-c1ccccc1` [ebselen, 2-phenyl-1,2-benzisoselenazol-3(2H)-one] was tested, and the “E. coli growth (OD600 nm)” value (E. coli DHB4 [1]; [7]) was “did not inhibit bacterial growth”, the “E. coli growth (OD600 nm)” value (E. coli DHB4 [1]; 80 μM ebselen alone, back to normal 12 h post-treatment) was “could inhibit E. coli growth in first 8 h” and the ROS concentrations (E. coli DHB4 [2]) was “did not change ROS concentrations”. It also gave an MIC (E. coli DHB4 trxA^−; Silver 0 μM) of 80 µM, an MIC (E. coli DHB4 trxA^−; Silver 5 μM) of 1 µM and an MIC (E. coli DHB4 trxA^−; Silver 10 μM) of 1 µM. The MIC (E. coli DHB4 trxA^−; Silver 20 μM) was 0.5 µM, the MIC ([3]; Escherichia coli, 24 h, Silver 0 μM, trxA^−gshA^−, 24 h) was 40 µM and the MIC ([3]; Escherichia coli, 24 h, Silver 5 μM, trxA^−gshA^−, 24 h) was 1 µM. It also gave an MIC ([3]; Escherichia coli, 24 h, Silver 10 μM, trxA^−gshA^−, 24 h) of 0.5 µM, an MIC ([3]; Escherichia coli, 24 h) of 4 µM and an MIC [3] of 2 µM. For the same compound, the MIC (E. coli DHB4 gor^−; Silver 0 μM) was 80 µM, the MIC (E. coli DHB4 gor^−; Silver 5 μM) was 1 µM and the MIC (E. coli DHB4 gor^−; Silver 10 μM) was 1 µM. The MIC (E. coli DHB4 gor^−; Silver 20 μM) was 0.5 µM, the MIC ([4]; Silver 0 μM) was 40 µM and the MIC ([4]; Silver 5 μM) was 1 µM. It also gave an MIC ([4]; Silver 10 μM) of 0.5 µM, an MIC (E. coli DHB4 trxC^−; Escherichia coli, 24 h, Silver 0 μM, trxC^−, 24 h) of 80 µM and an MIC (E. coli DHB4 trxC^−; Escherichia coli, 24 h, Silver 5 μM, trxC^−, 24 h) of 2 µM. For the same compound, the MIC (E. coli DHB4 trxC^−; Escherichia coli, 24 h, Silver 10 μM, trxC^−, 24 h) was 1 µM, the MIC (E. coli DHB4 trxC^−; Escherichia coli, 24 h, Silver 20 μM, trxC^−, 24 h) was 0.5 µM and the MIC (E. coli DHB4 trxC^−; Escherichia coli, 24 h) was 8 µM. For the same compound, the MIC (E. coli DHB4 trxC^−) was 4 µM, the MIC ([5]; Silver 0 μM) was 40 µM and the MIC ([5]; Silver 5 μM) was 1 µM. It also gave an MIC ([5]; Silver 10 μM) of 0.5 µM, an MIC (E. coli DHB4 gshA^−; Escherichia coli, 24 h, Silver 0 μM, gshA^−, 24 h) of 40 µM and an MIC (E. coli DHB4 gshA^−; Escherichia coli, 24 h, Silver 5 μM, gshA^−, 24 h) of 1 µM. The MIC (E. coli DHB4 gshA^−; Escherichia coli, 24 h, Silver 10 μM, gshA^−, 24 h) was 0.5 µM, the MIC (E. coli DHB4 gshA^−; Escherichia coli, 24 h) was 4 µM and the MIC (E. coli DHB4 gshA^−) was 2 µM. It also gave an MIC ([6]; Silver 0 μM) of 80 µM, an MIC ([6]; Silver 5 μM) of 1 µM and an MIC ([6]; Silver 10 μM) of 0.5 µM. It also gave an MIC ([6]; Silver 20 μM) of 0.5 µM, an MIC (E. coli DHB4 trxB^−; Silver 0 μM) of 80 µM and an MIC (E. coli DHB4 trxB^−; Silver 5 μM) of 1 µM. The MIC (E. coli DHB4 trxB^−; Silver 10 μM) was 0.5 µM, the MIC (E. coli DHB4 trxB^−; Silver 20 μM) was 0.5 µM and the MIC (E. coli DHB4 oxyR^−; Escherichia coli, 24 h, Silver 0 μM, oxyR^−, 24 h) was 40 µM. It also gave an MIC (E. coli DHB4 oxyR^−; Escherichia coli, 24 h, Silver 5 μM, oxyR^−, 24 h) of 1 µM, an MIC (E. coli DHB4 oxyR^−; Escherichia coli, 24 h, Silver 10 μM, oxyR^−, 24 h) of 0.5 µM and an MIC (E. coli DHB4 oxyR^−; Escherichia coli, 24 h) of 4 µM. The MIC (E. coli DHB4 oxyR^−) was 2 µM and the “Trx activities in cell extracts” value (E. coli Trx) was “not influenced”.

In the case of `O=[N+]([O-])[O-].[Ag+]` [silver, silver nitrate], the “E. coli growth (OD600 nm)” value (E. coli DHB4 [1]; [7]) is reported as “did not inhibit bacterial growth”, the ROS concentrations (E. coli DHB4 [2]) is reported as “did not change ROS concentrations” and the “MIC of silver in the presence of ebselen” value (E. coli DHB4 trxA^−; Ebselen 0 μM) is reported as 40 µM. The “MIC of silver in the presence of ebselen” value (E. coli DHB4 trxA^−; Ebselen 1 μM) was 10 µM, the “MIC of silver in the presence of ebselen” value (E. coli DHB4 trxA^−; Ebselen 2 μM) was 2.5 µM and the “MIC of silver in the presence of ebselen” value (E. coli DHB4 trxA^−; Ebselen 4 μM) was 1.25 µM. For the same compound, the “MIC of silver in the presence of ebselen” value ([3]; Ebselen 0 μM, trxA^−gshA^−, 24 h) was 20 µM, the “MIC of silver in the presence of ebselen” value ([3]; Ebselen 1 μM, trxA^−gshA^−, 24 h) was 5 µM and the “MIC of silver in the presence of ebselen” value ([3]; Ebselen 2 μM, trxA^−gshA^−, 24 h) was 2.5 µM. For the same compound, the “MIC of silver in the presence of ebselen” value ([3]; Ebselen 4 μM, trxA^−gshA^−, 24 h) was 0.625 µM, the “MIC of silver in the presence of ebselen” value (E. coli DHB4 gor^−; Ebselen 0 μM) was 40 µM and the “MIC of silver in the presence of ebselen” value (E. coli DHB4 gor^−; Ebselen 1 μM) was 10 µM. For the same compound, the “MIC of silver in the presence of ebselen” value (E. coli DHB4 gor^−; Ebselen 2 μM) was 5 µM, the “MIC of silver in the presence of ebselen” value (E. coli DHB4 gor^−; Ebselen 4 μM) was 1.25 µM and the “MIC of silver in the presence of ebselen” value ([4]; Ebselen 0 μM) was 20 µM. The “MIC of silver in the presence of ebselen” value ([4]; Ebselen 1 μM) was 10 µM, the “MIC of silver in the presence of ebselen” value ([4]; Ebselen 2 μM) was 2.5 µM and the “MIC of silver in the presence of ebselen” value ([4]; Ebselen 4 μM) was 0.625 µM. For the same compound, the “MIC of silver in the presence of ebselen” value (E. coli DHB4 trxC^−; Ebselen 0 μM, trxC^−, 24 h) was 40 µM, the “MIC of silver in the presence of ebselen” value (E. coli DHB4 trxC^−; Ebselen 1 μM, trxC^−, 24 h) was 10 µM and the “MIC of silver in the presence of ebselen” value (E. coli DHB4 trxC^−; Ebselen 2 μM, trxC^−, 24 h) was 5 µM. The “MIC of silver in the presence of ebselen” value (E. coli DHB4 trxC^−; Ebselen 4 μM, trxC^−, 24 h) was 1.25 µM, the “MIC of silver in the presence of ebselen” value ([5]; Ebselen 0 μM) was 20 µM and the “MIC of silver in the presence of ebselen” value ([5]; Ebselen 1 μM) was 10 µM. The “MIC of silver in the presence of ebselen” value ([5]; Ebselen 2 μM) was 2.5 µM, the “MIC of silver in the presence of ebselen” value ([5]; Ebselen 4 μM) was 0.625 µM and the “MIC of silver in the presence of ebselen” value (E. coli DHB4 gshA^−; Ebselen 0 μM, gshA^−, 24 h) was 20 µM. For the same compound, the “MIC of silver in the presence of ebselen” value (E. coli DHB4 gshA^−; Ebselen 1 μM, gshA^−, 24 h) was 5 µM, the “MIC of silver in the presence of ebselen” value (E. coli DHB4 gshA^−; Ebselen 2 μM, gshA^−, 24 h) was 2.5 µM and the “MIC of silver in the presence of ebselen” value (E. coli DHB4 gshA^−; Ebselen 4 μM, gshA^−, 24 h) was 0.625 µM. The “MIC of silver in the presence of ebselen” value ([6]; Ebselen 0 μM) was 40 µM, the “MIC of silver in the presence of ebselen” value ([6]; Ebselen 1 μM) was 10 µM and the “MIC of silver in the presence of ebselen” value ([6]; Ebselen 2 μM) was 2.5 µM. For the same compound, the “MIC of silver in the presence of ebselen” value ([6]; Ebselen 4 μM) was 1.25 µM, the “MIC of silver in the presence of ebselen” value (E. coli DHB4 trxB^−; Ebselen 0 μM) was 40 µM and the “MIC of silver in the presence of ebselen” value (E. coli DHB4 trxB^−; Ebselen 1 μM) was 10 µM. The “MIC of silver in the presence of ebselen” value (E. coli DHB4 trxB^−; Ebselen 2 μM) was 2.5 µM, the “MIC of silver in the presence of ebselen” value (E. coli DHB4 trxB^−; Ebselen 4 μM) was 0.625 µM and the “MIC of silver in the presence of ebselen” value (E. coli DHB4 oxyR^−; Ebselen 0 μM, oxyR^−, 24 h) was 20 µM. For the same compound, the “MIC of silver in the presence of ebselen” value (E. coli DHB4 oxyR^−; Ebselen 1 μM, oxyR^−, 24 h) was 5 µM, the “MIC of silver in the presence of ebselen” value (E. coli DHB4 oxyR^−; Ebselen 2 μM, oxyR^−, 24 h) was 1.25 µM and the “MIC of silver in the presence of ebselen” value (E. coli DHB4 oxyR^−; Ebselen 4 μM, oxyR^−, 24 h) was 0.625 µM. For the same compound, the “Trx activities in cell extracts” value (E. coli Trx) was “not influenced”.
